System: rodent lifetime carcinogenesis bioassay, tumor incidence TD50
Experiment: carcinogenic potency in animals, long-term in vivo studies, CPDB compilation (AID 1745844)
Conditions: by gavage

Question: What does the source list for `CC(C)=CCl`?
Answer: TD50 (mouse, strain B6C3F1, females, site: Harderian gland, lesion: papillary adenoma, dosed 102 weeks, study length 103 weeks): 146 mg/kg/day; TD50 (mouse, strain B6C3F1, females, site: any site (literature study), lesion: several types, types named in the paper, dosed 102 weeks, study length 103 weeks): 14.6 mg/kg/day; TD50 (mouse, strain B6C3F1, females, site: forestomach, lesion: adenosquamous carcinoma + carcinoma, NOS + squamous-cell carcinoma + squamous-cell papilloma, dosed 102 weeks, study length 103 weeks): 14.3 mg/kg/day; TD50 (mouse, strain B6C3F1, females, site: forestomach, lesion: adenosquamous carcinoma + carcinoma, NOS + squamous-cell carcinoma, dosed 102 weeks, study length 103 weeks): 14.3 mg/kg/day; TD50 (mouse, strain B6C3F1, females, site: forestomach, lesion: squamous-cell carcinoma + squamous-cell papilloma, dosed 102 weeks, study length 103 weeks): 14.4 mg/kg/day; TD50 (mouse, strain B6C3F1, females, site: forestomach, lesion: squamous-cell carcinoma, dosed 102 weeks, study length 103 weeks): 14.4 mg/kg/day; TD50 (mouse, strain B6C3F1, females, site: forestomach, lesion: squamous-cell papilloma, dosed 102 weeks, study length 103 weeks): 373 mg/kg/day; TD50 (mouse, strain B6C3F1, females, site: jejunum + liver + multiple organs + spleen, lesion: malignant lymphoma, lymphocytic type + malignant lymphoma, mixed type + malignant lymphoma, histiocytic type, dosed 102 weeks, study length 103 weeks): 124 mg/kg/day; TD50 (mouse, strain B6C3F1, females, site: liver + multiple organs + spleen, lesion: malignant lymphoma, mixed type, dosed 102 weeks, study length 103 weeks): 229 mg/kg/day; TD50 (mouse, strain B6C3F1, females, site: liver, lesion: hepatocellular adenoma + hepatocellular carcinoma + neoplastic nodule, dosed 102 weeks, study length 103 weeks): 150 mg/kg/day; TD50 (mouse, strain B6C3F1, females, site: liver, lesion: hepatocellular adenoma, dosed 102 weeks, study length 103 weeks): 150 mg/kg/day; TD50 (mouse, strain B6C3F1, females, site: lung, lesion: alveolar/bronchiolar adenoma + alveolar/bronchiolar carcinoma, dosed 102 weeks, study length 103 weeks): 186 mg/kg/day; TD50 (mouse, strain B6C3F1, females, site: lung, lesion: alveolar/bronchiolar adenoma, dosed 102 weeks, study length 103 weeks): 235 mg/kg/day; TD50 (mouse, strain B6C3F1, males, site: Harderian gland, lesion: papillary adenoma, dosed 102 weeks, study length 103 weeks): 149 mg/kg/day; TD50 (mouse, strain B6C3F1, males, site: any site (literature study), lesion: several types, types named in the paper, dosed 102 weeks, study length 103 weeks): 13.9 mg/kg/day; TD50 (mouse, strain B6C3F1, males, site: duodenum + lymph node + multiple organs + spleen, lesion: malignant lymphoma, mixed type + malignant lymphoma, NOS + granulocytic leukemia + malignant lymphoma, histiocytic type + malign, dosed 102 weeks, study length 103 weeks): 148 mg/kg/day; TD50 (mouse, strain B6C3F1, males, site: duodenum + lymph node + multiple organs + spleen, lesion: malignant lymphoma, mixed type + malignant lymphoma, NOS + malignant lymphoma, histiocytic type + malignant lymphoma, lymphocy, dosed 102 weeks, study length 103 weeks): 154 mg/kg/day; TD50 (mouse, strain B6C3F1, males, site: forestomach + preputial gland, lesion: squamous-cell carcinoma + squamous-cell papilloma, dosed 102 weeks, study length 103 weeks): 15.2 mg/kg/day; TD50 (mouse, strain B6C3F1, males, site: forestomach, lesion: squamous-cell carcinoma + squamous-cell papilloma, dosed 102 weeks, study length 103 weeks): 15.5 mg/kg/day; TD50 (mouse, strain B6C3F1, males, site: forestomach, lesion: squamous-cell carcinoma, dosed 102 weeks, study length 103 weeks): 17.2 mg/kg/day; TD50 (mouse, strain B6C3F1, males, site: forestomach, lesion: squamous-cell papilloma, dosed 102 weeks, study length 103 weeks): 195 mg/kg/day; TD50 (mouse, strain B6C3F1, males, site: liver + mesenteric lymph node + preputial gland + spleen, lesion: hemangioma + hemangiosarcoma, dosed 102 weeks, study length 103 weeks): 221 mg/kg/day; TD50 (mouse, strain B6C3F1, males, site: liver + spleen, lesion: hemangiosarcoma, dosed 102 weeks, study length 103 weeks): 375 mg/kg/day; TD50 (mouse, strain B6C3F1, males, site: liver, lesion: hepatocellular adenoma + hepatocellular carcinoma + neoplastic nodule, dosed 102 weeks, study length 103 weeks): 48.8 mg/kg/day; TD50 (mouse, strain B6C3F1, males, site: liver, lesion: hepatocellular adenoma + hepatocellular carcinoma, dosed 102 weeks, study length 103 weeks): 48.8 mg/kg/day; TD50 (mouse, strain B6C3F1, males, site: liver, lesion: hepatocellular adenoma, dosed 102 weeks, study length 103 weeks): 87.1 mg/kg/day; TD50 (mouse, strain B6C3F1, males, site: liver, lesion: hepatocellular carcinoma, dosed 102 weeks, study length 103 weeks): 104 mg/kg/day; TD50 (mouse, strain B6C3F1, males, site: lung, lesion: alveolar/bronchiolar adenoma + alveolar/bronchiolar carcinoma, dosed 102 weeks, study length 103 weeks): 87.7 mg/kg/day; TD50 (mouse, strain B6C3F1, males, site: lung, lesion: alveolar/bronchiolar adenoma, dosed 102 weeks, study length 103 weeks): 117 mg/kg/day; TD50 (mouse, strain B6C3F1, males, site: lung, lesion: alveolar/bronchiolar carcinoma, dosed 102 weeks, study length 103 weeks): 199 mg/kg/day; TD50 (mouse, strain B6C3F1, males, site: preputial gland, lesion: squamous-cell carcinoma, dosed 102 weeks, study length 103 weeks): 90.7 mg/kg/day; TD50 (rat, strain Fischer 344, females, site: any site (literature study), lesion: several types, types named in the paper, dosed 100 weeks, study length 104 weeks): 11.9 mg/kg/day; TD50 (rat, strain Fischer 344, females, site: esophagus + forestomach + gingiva + nasal cavity + oral mucosa + palate + tongue, lesion: squamous-cell carcinoma + squamous-cell papilloma + adenocarcinoma + adenoma, NOS + carcinoma, NOS, dosed 100 weeks, study length 104 weeks): 25.3 mg/kg/day; TD50 (rat, strain Fischer 344, females, site: esophagus, lesion: squamous-cell carcinoma, dosed 100 weeks, study length 104 weeks): 250 mg/kg/day; TD50 (rat, strain Fischer 344, females, site: forestomach, lesion: squamous-cell carcinoma + squamous-cell papilloma, dosed 100 weeks, study length 104 weeks): 95.2 mg/kg/day; TD50 (rat, strain Fischer 344, females, site: forestomach, lesion: squamous-cell carcinoma, dosed 100 weeks, study length 104 weeks): 191 mg/kg/day; TD50 (rat, strain Fischer 344, females, site: forestomach, lesion: squamous-cell papilloma, dosed 100 weeks, study length 104 weeks): 209 mg/kg/day; TD50 (rat, strain Fischer 344, females, site: gingiva + oral mucosa + palate + tongue, lesion: squamous-cell carcinoma + squamous-cell papilloma, dosed 100 weeks, study length 104 weeks): 318 mg/kg/day; TD50 (rat, strain Fischer 344, females, site: lung, lesion: alveolar/bronchiolar adenoma + alveolar/bronchiolar carcinoma, dosed 100 weeks, study length 104 weeks): 218 mg/kg/day; TD50 (rat, strain Fischer 344, females, site: mammary gland, lesion: adenocarcinoma + fibroadenoma, dosed 100 weeks, study length 104 weeks): 36.7 mg/kg/day; TD50 (rat, strain Fischer 344, females, site: mammary gland, lesion: fibroadenoma, dosed 100 weeks, study length 104 weeks): 38.3 mg/kg/day

— PubChem BioAssay AID1745844 (Carcinogenic Potency Database (CPDB), 2022)
